How the values were obtained:
[1] = target: PI3K-δ (PI3K(p1108/p857) (h)) (Homo sapiens, UniProt O00329); experiment: Evaluation of inhibitory activity against PI3K-δ (HTRF kinase assay); format: biochemical; settings: for inhibition at 0.01 µM: compound concentration 0.01 μM, read-out: EXP_VALUE(% Inhibition) PI3K-δ 0.01 μM; for inhibition at 0.1 µM: compound concentration 0.1 μM, read-out: EXP_VALUE(% Inhibition) PI3K-δ 0.1 μM
Summary of the method: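 HTRF read-out (665/620 nm ratio ×10000) used Eu-labelled anti-GST, GST-tagged GRP1 PH domain and streptavidin-allophycocyanin after EDTA/PIP3 stop.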

[2] = target: DNA-PK(h) (Homo sapiens, UniProt P78527); experiment: Evaluation of inhibitory activity against DNA-PK (HTRF kinase assay, GST-cMyc-p53 substrate); format: biochemical; settings: for inhibition at 0.01 µM: compound concentration 0.01 μM, read-out: EXP_VALUE(% Inhibition) DNA-PK(h) 0.01 μM; for inhibition at 0.1 µM: compound concentration 0.1 μM, read-out: EXP_VALUE(% Inhibition) DNA-PK(h) 0.1 μM
Summary of the method: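 Human DNA-PK with 50 μM GST-cMyc-p53 substrate; reaction started with Mg/ATP, run 30 min at room temperature, stopped with EDTA. Phospho-Ser15 p53 detected by HTRF (Eu anti-phospho-Ser15, d2 anti-GST), signal = 10000×(Em 665/Em 620).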

Chain of PI3K-δ (PI3K(p1108/p857) (h)) (O00329 whole entry, the tested form may be a part): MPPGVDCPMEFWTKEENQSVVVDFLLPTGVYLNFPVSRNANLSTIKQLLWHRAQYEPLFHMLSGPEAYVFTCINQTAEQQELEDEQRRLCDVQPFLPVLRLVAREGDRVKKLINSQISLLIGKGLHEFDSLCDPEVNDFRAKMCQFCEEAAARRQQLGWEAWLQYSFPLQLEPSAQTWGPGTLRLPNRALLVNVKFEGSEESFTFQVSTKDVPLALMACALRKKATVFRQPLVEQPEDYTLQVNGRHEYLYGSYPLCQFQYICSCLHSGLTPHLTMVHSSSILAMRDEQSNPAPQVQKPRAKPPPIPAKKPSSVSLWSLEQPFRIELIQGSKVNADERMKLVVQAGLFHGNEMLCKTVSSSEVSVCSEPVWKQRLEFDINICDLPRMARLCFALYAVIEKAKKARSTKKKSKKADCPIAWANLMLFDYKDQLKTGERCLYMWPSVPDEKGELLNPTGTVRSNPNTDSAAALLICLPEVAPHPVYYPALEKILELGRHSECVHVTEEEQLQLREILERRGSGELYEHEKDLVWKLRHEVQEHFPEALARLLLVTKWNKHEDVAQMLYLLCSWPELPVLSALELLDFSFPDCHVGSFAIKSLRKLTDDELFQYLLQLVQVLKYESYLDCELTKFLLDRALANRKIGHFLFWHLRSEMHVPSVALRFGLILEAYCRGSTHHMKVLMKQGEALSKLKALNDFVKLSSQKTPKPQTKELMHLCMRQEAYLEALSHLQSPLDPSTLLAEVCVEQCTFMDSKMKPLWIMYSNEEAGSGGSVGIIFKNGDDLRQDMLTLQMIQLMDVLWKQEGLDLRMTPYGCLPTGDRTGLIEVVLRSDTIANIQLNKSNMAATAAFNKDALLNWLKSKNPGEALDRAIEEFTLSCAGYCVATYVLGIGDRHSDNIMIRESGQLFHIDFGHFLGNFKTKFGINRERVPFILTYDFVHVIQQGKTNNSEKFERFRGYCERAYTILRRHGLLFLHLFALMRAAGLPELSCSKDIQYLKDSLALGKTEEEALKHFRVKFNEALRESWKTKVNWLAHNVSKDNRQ
Chain of PI3K-δ (PI3K(p1108/p857) (h)) (P27986 whole entry partner, the tested form may be a part): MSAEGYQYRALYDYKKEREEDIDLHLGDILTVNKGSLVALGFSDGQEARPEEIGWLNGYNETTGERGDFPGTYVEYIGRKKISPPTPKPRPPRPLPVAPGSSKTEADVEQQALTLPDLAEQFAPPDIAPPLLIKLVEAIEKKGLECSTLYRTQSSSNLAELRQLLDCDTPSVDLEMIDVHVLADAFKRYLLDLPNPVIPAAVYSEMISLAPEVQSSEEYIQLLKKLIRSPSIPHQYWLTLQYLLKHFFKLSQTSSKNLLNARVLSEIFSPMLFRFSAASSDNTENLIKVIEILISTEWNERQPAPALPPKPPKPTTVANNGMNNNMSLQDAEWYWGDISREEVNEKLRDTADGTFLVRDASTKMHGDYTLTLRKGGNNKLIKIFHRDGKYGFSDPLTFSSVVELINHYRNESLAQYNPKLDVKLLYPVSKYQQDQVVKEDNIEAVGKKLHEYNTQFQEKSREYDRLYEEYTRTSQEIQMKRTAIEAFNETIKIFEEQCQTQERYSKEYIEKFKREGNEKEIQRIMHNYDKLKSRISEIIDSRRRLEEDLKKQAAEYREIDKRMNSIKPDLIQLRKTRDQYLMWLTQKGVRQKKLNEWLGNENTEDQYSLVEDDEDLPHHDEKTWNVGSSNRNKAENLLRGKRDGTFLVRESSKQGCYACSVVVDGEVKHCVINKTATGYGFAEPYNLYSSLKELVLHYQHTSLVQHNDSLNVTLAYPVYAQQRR

Compound	inhibition at 0.01 µM [1] [%]	inhibition at 0.1 µM [1] [%]	inhibition at 0.01 µM [2] [%]	inhibition at 0.1 µM [2] [%]
C[C@H](Nc1ncnc2[nH]ccc(=O)c12)c1c(Cl)c2cccc(-c3cccc(CC#N)c3)c2c(=O)n1-c1ccccc1 [Example 91, (S)-2-(3-(4-chloro-1-oxo-3-(1-((5-oxo-5,8-dihydropyrido[2,3-d]pyrimidin-4-yl)amino)ethyl)-2-phenyl-1,2-dihydroisoquinolin-8-yl)phenyl)acetonitrile]	89	101	77	98
C[C@H](Nc1ncnc2[nH]ccc(=O)c12)c1c(Cl)c2cccc(-c3ccc(-c4nnc(N)s4)cc3)c2c(=O)n1-c1ccccc1 [Example 92, (S)-4-((1-(8-(4-(5-amino-1,3,4-thiadiazol-2-yl)phenyl)-4-chloro-1-oxo-2-phenyl-1,2-dihydroisoquinolin-3-yl)ethyl)amino)pyrido[2,3-d]pyrimidin-5(8H)-one]	91	97	63	92
C[C@H](Nc1ncnc2[nH]ccc(=O)c12)c1c(Cl)c2cccc(-c3ccc(-c4cccs4)cc3)c2c(=O)n1-c1ccccc1 [Example 93, (S)-4-((1-(4-chloro-1-oxo-2-phenyl-8-(4-(thiophen-2-yl)phenyl)-1,2-dihydroisoquinolin-3-yl)ethyl)amino)pyrido[2,3-d]pyrimidin-5(8H)-one]	46	79	13	45
C[C@H](Nc1ncnc2[nH]ccc(=O)c12)c1c(Cl)c2cccc(-c3ccc(N)cc3)c2c(=O)n1-c1ccccc1 [Example 94, (S)-4-((1-(8-(4-aminophenyl)-4-chloro-1-oxo-2-phenyl-1,2-dihydroisoquinolin-3-yl)ethyl)amino)pyrido[2,3-d]pyrimidin-5(8H)-one]	84	95	78	100
C[C@H](Nc1ncnc2[nH]ccc(=O)c12)c1c(Cl)c2cccc(-c3ccc(S)cc3)c2c(=O)n1-c1ccccc1 [Example 95, (S)-4-((1-(4-chloro-8-(4-mercaptophenyl)-1-oxo-2-phenyl-1,2-dihydroisoquinolin-3-yl)ethyl)amino)pyrido[2,3-d]pyrimidin-5(8H)-one]	3	14	9	16
C[C@H](Nc1ncnc2[nH]ccc(=O)c12)c1c(Cl)c2cccc(-c3cnn(C4CC4)c3)c2c(=O)n1-c1ccccc1 [Example 96, (S)-4-((1-(4-chloro-8-(1-cyclopropyl-1H-pyrazol-4-yl)-1-oxo-2-phenyl-1,2-dihydroisoquinolin-3-yl)ethyl)amino)pyrido[2,3-d]pyrimidin-5(8H)-one]	86	97	78	100
C[C@H](Nc1ncnc2[nH]ccc(=O)c12)c1c(Cl)c2cccc(-c3cccc(Cl)c3)c2c(=O)n1-c1ccccc1 [Example 97, (S)-4-((1-(4-chloro-8-(3-chlorophenyl)-1-oxo-2-phenyl-1,2-dihydroisoquinolin-3-yl)ethyl)amino)pyrido[2,3-d]pyrimidin-5(8H)-one]	84	99	35	87
Cc1ccc(-c2cccc3c(Cl)c([C@H](C)Nc4ncnc5[nH]ccc(=O)c45)n(-c4ccccc4)c(=O)c23)o1 [Example 98, (S)-4-((1-(4-chloro-8-(5-methylfuran-2-yl)-1-oxo-2-phenyl-1,2-dihydroisoquinolin-3-yl)ethyl)amino)pyrido[2,3-d]pyrimidin-5(8H)-one]	66	91	84	98
